Test results from publication PMC3111092 (Journal of natural products, 2011).

Assays:
[1] = system: Staphylococcus aureus; experiment: Antimicrobial agar plate diffusion assay; format: cell-based
[2] = system: Bacillus subtilis; experiment: Antimicrobial agar plate diffusion assay; format: cell-based
[3] = system: NF-κB p65; experiment: ELISA based NF-κB p65 inhibitory assay in HeLa cells; format: cell-based; details: for IC50: Homo sapiens, HeLa, read-out: NF-κB inhibitory activity IC50; for NF-κB inhibition activity (in words): HeLa cells, p65 ELISA
[4] = system: Escherichia coli; experiment: Antimicrobial agar plate diffusion assay; format: cell-based
[5] = system: TAK1; details: reported previously; cited from earlier work

| Compound | MIC [1] | IC50 [3] | NF-κB inhibition activity (in words) [3] | other results |
| --- | --- | --- | --- | --- |
| COc1cc(O)c2c(c1)/C=C/C[C@H](O)[C@H](O)[C@@H](O)/C=C/C[C@H](C)OC2=O [compound 2, zeaenol] | > 500 µg/mL | > 50 µM | – | MIC [2]: > 500 µg/mL |
| C[C@H]1C/C=C\C(=O)[C@@H](O)[C@@H](O)C/C=C/c2cc(O)cc(O)c2C(=O)O1 [compound 1, 15-O-desmethyl-5Z-7-oxozeaenol] | – | – | sub-micromolar | – |
| CC1(C)S[C@@H]2[C@H](NC(=O)Cc3ccccc3)C(=O)N2[C@H]1C(=O)O [penicillin G, reference compound] | – | – | – | lowest concentration at which biological activity could be detected ([4]; positive controls): 100 μg/mL |
| COc1cc(O)c2c(c1)/C=C/C[C@H](O)[C@H](O)[C@H](O)/C=C/C[C@H](C)OC2=O [compound 3, 7-epi-zeaenol] | – | > 50 µM | – | MIC [4]: > 500 µg/mL |
| COc1cc(O)c2c(c1)/C=C/C[C@H](O)[C@H](O)C(=O)/C=C\C[C@H](C)OC2=O [compound 5, 5Z-7-oxozeaenol] | > 500 µg/mL | – | sub-micromolar | TAK1 inhibition [5]: potent inhibitor |
